Test results taken from ChEMBL document CHEMBL3774310, “Discovery of antitumor anthra[2,3-b]furan-3-carboxamides: Optimization of synthesis and evaluation of antitumor properties” (Eur J Med Chem, 2016).
Calls of active or inactive are those of the source. The calls are words filed in the database; no cut-off is given here.

Tests used:
K562 [1] = test: cells; conditions: Homo sapiens, K562, 72 h
Description: Antiproliferative activity against human K562 cells after 72 hrs by MTT assay

L1210 = test: cells; conditions: Mus musculus, L1210, 48 h
Description: Antiproliferative activity against mouse L1210 cells after 48 hrs by MTT assay

[2] = Antiproliferative activity against human K562/4 cells after 72 hrs by MTT assay; conditions: K562/4, 72 h
cells = conditions: Homo sapiens, HCT-116, 72 h
Description: Antiproliferative activity against human HCT116 cells after 72 hrs by MTT assay

HeLa = test: Antiproliferative activity against human HeLa cells after 72 hrs by MTT assay; format: functional, cell-based
[3] = target: T1, DNA topoisomerase 1 (Homo sapiens) (UniProt P11387); test: Poisoning activity at topoisomerase 1 (unknown origin) using 3'-[32P]dGTP labelled 117bp oligonucleotide assessed as induction of DNA cleavage incubated for 20 mins by SDS-PAGE analysis
T1 sequence (whole entry): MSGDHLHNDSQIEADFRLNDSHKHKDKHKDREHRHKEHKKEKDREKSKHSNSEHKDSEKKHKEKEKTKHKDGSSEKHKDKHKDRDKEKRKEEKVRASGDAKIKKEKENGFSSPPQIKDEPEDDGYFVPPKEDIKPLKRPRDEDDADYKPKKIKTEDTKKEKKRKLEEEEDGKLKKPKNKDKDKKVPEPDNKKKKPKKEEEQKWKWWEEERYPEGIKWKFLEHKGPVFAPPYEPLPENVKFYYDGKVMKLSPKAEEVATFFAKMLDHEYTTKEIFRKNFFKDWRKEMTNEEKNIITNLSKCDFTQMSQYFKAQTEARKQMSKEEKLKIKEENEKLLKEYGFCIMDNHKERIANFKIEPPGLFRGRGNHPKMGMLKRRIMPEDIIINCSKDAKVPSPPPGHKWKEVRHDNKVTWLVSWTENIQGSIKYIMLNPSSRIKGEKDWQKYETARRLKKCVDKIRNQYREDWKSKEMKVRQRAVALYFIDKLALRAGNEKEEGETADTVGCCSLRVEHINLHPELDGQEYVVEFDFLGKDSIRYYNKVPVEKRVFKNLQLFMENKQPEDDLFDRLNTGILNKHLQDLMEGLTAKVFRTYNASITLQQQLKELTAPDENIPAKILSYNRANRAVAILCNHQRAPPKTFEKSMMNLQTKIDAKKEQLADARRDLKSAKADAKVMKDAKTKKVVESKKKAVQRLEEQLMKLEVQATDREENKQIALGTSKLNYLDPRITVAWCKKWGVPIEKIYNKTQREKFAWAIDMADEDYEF

K562 [4] = test: Binding affinity to P-gp in human K562 cells assessed as drug accumulation at 1 uM incubated for 1 to 24 hrs by flow cytometry; format: cell-based
Calf thymus DNA = test: Binding affinity to calf thymus DNA at 5 uM by fluorescence assay; format: nucleic-acid assay; conditions: Bos taurus
K562/4 = test: Binding affinity to P-gp in human K562/4 cells assessed as drug accumulation at 1 uM incubated for 1 to 24 hrs by flow cytometry; format: cell-based
[5] = target: T1, DNA topoisomerase 1 (Homo sapiens); test: Poisoning activity at topoisomerase 1 (unknown origin) using 3'-[32P]dGTP labelled 117bp oligonucleotide assessed as induction of DNA cleavage at 1 uM incubated for 20 mins by SDS-PAGE analysis

Compound | IC50 (K562 [1]) | IC50 (L1210) | IC50 [2] | IC50 (cells) | IC50 (HeLa) | Activity [3] | Activity (K562 [4]) | Activity (Calf thymus DNA) | Activity (K562/4) | Activity [5]
Cc1oc2c(O)c3c(c(O)c2c1C(=O)N1CCC(N)CC1)C(=O)c1ccccc1C3=O | 2100 nM | 13000 nM | 400 nM | 2000 nM | 9700 nM | – | – | – | – | –
Cc1oc2c(O)c3c(c(O)c2c1C(=O)N1CCNC(C)C1)C(=O)c1ccccc1C3=O (centres undefined) | 900 nM | 3700 nM | 3000 nM | 1300 nM | 900 nM | – | – | – | – | –
Cc1oc2c(O)c3c(c(O)c2c1C(=O)N1CCN(C)CC1)C(=O)c1ccccc1C3=O | 1600 nM | 82000 nM | 5900 nM | 11500 nM | 104000 nM | – | – | – | – | –
Cc1oc2c(O)c3c(c(O)c2c1C(=O)N1CCNCC1C)C(=O)c1ccccc1C3=O (centres undefined) | 1100 nM | 3700 nM | 4800 nM | 1600 nM | 700 nM | – | – | – | – | –
O=C1c2ccccc2C(=O)c2c1c(O)c1[nH]cc(CN[C@@H]3CCNC3)c1c2O | – | 70 nM | 400 nM | 1600 nM | – | Active | – | – | – | –
COc1cccc2c1C(=O)c1c(O)c3c(c(O)c1C2=O)C[C@@](O)(C(=O)CO)C[C@@H]3O[C@H]1C[C@H](N)[C@H](O)[C@H](C)O1 | – | – | – | – | – | – | inactive | Active | Active | –
CC[C@@]1(O)C(=O)OCc2c1cc1n(c2=O)Cc2cc3ccccc3nc2-1 | – | – | – | – | – | – | – | – | – | Active
COc1cc2c3c(n(CCCNCCO)c(=O)c2cc1OC)-c1cc2c(cc1C3=O)OCO2 | – | – | – | – | – | – | – | – | – | Active
Cc1oc2c(O)c3c(c(O)c2c1C(=O)N1CCNCC1)C(=O)c1ccccc1C3=O | 1300 nM | 4100 nM | 2800 nM | 2300 nM | 3100 nM | – | – | – | – | –
Cc1oc2c(O)c3c(c(O)c2c1C(=O)N1CCCC(N)C1)C(=O)c1ccccc1C3=O (centres undefined) | 850 nM | 5600 nM | 700 nM | 1500 nM | 1400 nM | – | – | – | – | –
Cc1oc2c(O)c3c(c(O)c2c1C(=O)N[C@H]1CCNC1)C(=O)c1ccccc1C3=O | 750 nM | 6500 nM | 800 nM | 250 nM | 64000 nM | – | – | – | – | –
Cc1oc2c(O)c3c(c(O)c2c1C(=O)NC1CCNCC1)C(=O)c1ccccc1C3=O | 2700 nM | 5100 nM | 4000 nM | 1200 nM | 11000 nM | – | – | – | – | –
Cc1oc2c(O)c3c(c(O)c2c1C(=O)NC1CCCNC1)C(=O)c1ccccc1C3=O (centres undefined) | 600 nM | 3000 nM | 350 nM | 1600 nM | 3400 nM | – | – | – | – | –
Cc1oc2c(O)c3c(c(O)c2c1C(=O)N[C@@H]1CCNC1)C(=O)c1ccccc1C3=O | 700 nM | 5400 nM | 750 nM | 300 nM | 9500 nM | – | – | – | – | –
Cc1oc2c(O)c3c(c(O)c2c1C(=O)NC1CN2CCC1CC2)C(=O)c1ccccc1C3=O (centres undefined) | 600 nM | 2400 nM | 650 nM | 900 nM | 12000 nM | – | – | – | – | –
